We go through 21 compounds from ChEMBL document CHEMBL1156839, “From anti-fouling to biofilm inhibition: new cytotoxic secondary metabolites from two Indonesian Agelas sponges” (Bioorg Med Chem, 2010).

Values after ≈ are worked out from the molar mass of the structure shown. Where a name gives a salt, the structure may show the parent alone. Active and inactive are the calls of the source. A value given as a limit tells only on which side of the number the result lay.

The MIC is the smallest concentration in the dilution series that meets the test's criterion for growth inhibition. As usually defined, the IC50 is the concentration needed to halve the response being measured.

The subject of data set [1] is L5178Y. The experiment in a line: Growth inhibition of mouse L5178Y cells at […] after 72 hrs by MTT assay relative to untreated control. It is filed as functional. Particulars: values are per cent of control. The arrangement: dose or concentration left out as unconfirmed.
Data set [2] has as its system Staphylococcus epidermidis. Put plainly: Growth inhibition of Staphylococcus epidermidis. It is filed as functional, organism-based.
Data set [3] has as its system Staphylococcus epidermidis. The experiment in a line: Antibacterial activity against Staphylococcus epidermidis assessed as inhibition of biofilm formation after 18 hrs by adherent assay. It is filed as functional, organism-based.
Data set [4] has as its system Staphylococcus epidermidis. Put plainly: Antibacterial activity against Staphylococcus epidermidis. It is filed as functional.
In data set [5] the test system is L5178Y. Put plainly: Cytotoxicity against mouse L5178Y cells after 72 hrs by MTT assay. It is filed as functional, cell-based.
The subject of data set [6] is Amphibalanus improvisus. The experiment in a line: Antifouling activity against Balanus improvisus […] larvae assessed as inhibition of cyprid larval settlement at 0.1 uM to 100 uM. It is filed as functional, organism-based.
Data set [7] concerns Amphibalanus improvisus. The experiment in a line: Toxicity against Balanus improvisus […] larvae assessed as cyprid larval death at 0.1 uM to 100 uM. It is filed as ADME, organism-based. The settings on record: in vivo.
The mark [8] stands for this setting: Staphylococcus epidermidis, read-out: MIC.

As for `Cn1c(C(=O)O)cc(Br)c1Br`, the growth, % of control with L5178Y [1] turned out to be 87.8%. Further, the “growth inhibition (GI)” value in data set [2] is “inactive”. For the same compound, the inhibition entry in data set [3] is “inactive”. For the same compound, in data set [4] (setting [8]), the minimal inhibitory concentration (MIC) is more than 71 µM.

As for `CC1=CCC[C@@H](C)[C@]1(C)CC/C(C)=C/CC/C(C)=C/CS(=O)(=O)CCNC(=N)N` [AGELASIDINE C], in the data set with L5178Y [1], the growth, % of control worked out at 37.4%. In data set [2], the “growth inhibition (GI)” value was “inactive”. For the same compound, the inhibition entry in data set [3] is “inactive”. Also, in data set [4] (setting [8]), the minimal inhibitory concentration (MIC) was determined as 5.9 µM (≈ 2.5 µg/mL).

Turning to `Cn1c(C(=O)N2CCC(O)=C3N=C(N)N=C32)cc(Br)c1Br` [AGELANIN A], the growth, % of control in the data set with L5178Y [1] was 98.9%. Also, in data set [2], the “growth inhibition (GI)” value was “inactive”. For the same compound, the inhibition entry in data set [3] was “inactive”. The MIC in data set [4] (setting [8]) was more than 48 µM.

Turning to `CN1C(=O)NC(CCCNC(=O)c2cc(Br)c(Br)n2C)C1=O` (configuration not stated) [MIDPACAMIDE], the growth, % of control in the data set with L5178Y [1] was 46.7%. In data set [2], the “growth inhibition (GI)” value is “inactive”. For the same compound, in data set [3], the inhibition entry was “inactive”. Moreover, in data set [4] (setting [8]), the MIC was more than 46 µM.

On to `CCN1C(=N)NC(=O)C1(CCCNC(=O)c1cc(Br)c(Br)n1C)NCCS(=O)(=O)O` (configuration not stated) [MAURITAMIDE C], for which the growth, % of control with L5178Y [1] came to 98.6%. Also, the “growth inhibition (GI)” value in data set [2] was “inactive”. In addition, the inhibition entry in data set [3] was “inactive”. For the same compound, in data set [4] (setting [8]), the minimum inhibitory concentration (MIC) was more than 35 µM.

Turning to `CN(C)CCc1ccc(OCCCNC(=O)c2cc(Br)c(Br)[nH]2)c(Br)c1` [AGELANESIN C], half-maximal inhibition with L5178Y [5] (IC50) required 16.8 µM. Besides, the growth, % of control in the data set with L5178Y [1] is 0.8%. Besides, the “growth inhibition (GI)” value in data set [2] was “inactive”. Further, the inhibition result in data set [3] is “inactive”. The minimal inhibitory concentration (MIC) in data set [4] (setting [8]) is more than 36 µM.

`C=C1CC[C@@H]2C(C)(C)CCC[C@@]2(C)[C@@H]1CC/C(C)=C/C[n+]1cn(C)c2nc[nH]/c(=N\O)c21.[Cl-]`: in the data set with L5178Y [5], inhibition was half-maximal at 12.5 µM (IC50). The inhibition result in the data set on Amphibalanus improvisus [6] was “Dose-dependent effect”. Besides, the growth, % of control in the data set with L5178Y [1] is 4.2%. Further, in the data set with Amphibalanus improvisus [7], the Activity entry is “Toxic”. In addition, in data set [2], the “growth inhibition (GI)” value is “inactive”. In addition, the inhibition result in data set [3] was “Active”. Also, in data set [4] (setting [8]), the minimal inhibitory concentration (MIC) is more than 45 µM.

Consider `CN(C)CCc1ccc(OCCCNC(=O)c2cc(Br)c[nH]2)c(I)c1` [AGELANESIN B], for which, in the data set with L5178Y [5], the IC50 was 9.25 µM. The growth, % of control in the data set with L5178Y [1] worked out at 2.3%. The “growth inhibition (GI)” value in data set [2] was “inactive”. For the same compound, the inhibition result in data set [3] was “inactive”. Also, the minimal inhibitory concentration (MIC) in data set [4] (setting [8]) is more than 38 µM.

As to `CC(=O)C(O)(CCCNC(=O)c1cc(Br)c(Br)n1C)CC(=O)O` (configuration not stated) [AGELANIN B], the growth, % of control in the data set with L5178Y [1] was 92.8%. Moreover, the “growth inhibition (GI)” value in data set [2] is “inactive”. In addition, in data set [3], the inhibition result was “inactive”. In addition, the minimal inhibitory concentration (MIC) in data set [4] (setting [8]) was more than 44 µM.

Consider `NC1=N[C@@]23CCCN2C(=O)c2cc(Br)c(Br)n2[C@H]3N1` [DIBROMPHAKELLIN HYDROCHLORIDE], for which the MIC in data set [4] (setting [8]) is more than 47 µM.

In the case of `COC(=O)c1cc(Br)c(Br)n1C`, the growth, % of control in the data set on L5178Y [1] was 83.4%. For the same compound, the “growth inhibition (GI)” value in data set [2] is “inactive”. Also, the inhibition result in data set [3] is “inactive”. In data set [4] (setting [8]), the MIC is more than 67 µM.

For `NC1=N[C@@]23CCCN2C(=O)c2cc(Br)c(Br)n2[C@]3(O)N1` [DIBROMOHYDROXYPHAKELLIN HYDROCHLORIDE], the growth, % of control in the data set with L5178Y [1] was found to be 113%. For the same compound, in data set [2], the “growth inhibition (GI)” value is “inactive”. Besides, in data set [3], the inhibition result was “inactive”. The minimal inhibitory concentration (MIC) in data set [4] (setting [8]) was more than 45 µM.

Compound `NC1=N[C@@]23CCCN2C(=O)c2cc(Br)c(Br)n2[C@H]3N1` [DIBROMPHAKELLIN] returned a minimal inhibitory concentration (MIC) in data set [4] of more than 51 µM.

For `CN(C)CCc1ccc(OCCCNC(=O)c2cc(Br)c(Br)[nH]2)c(I)c1` [AGELANESIN D], in the data set on L5178Y [5], 13.1 µM corresponded to half-maximal inhibition (IC50). In the data set on L5178Y [1], the growth, % of control was -2.3%. In addition, the “growth inhibition (GI)” value in data set [2] was “inactive”. The inhibition result in data set [3] is “inactive”. The MIC in data set [4] (setting [8]) was more than 33 µM.

Regarding `Cn1c(C(=O)NCCS(=O)(=O)O)cc(Br)c1Br` [MAURITAMIDE D], the growth, % of control in the data set on L5178Y [1] is 118%. The “growth inhibition (GI)” value in data set [2] is “inactive”. Further, in data set [3], the inhibition result was “inactive”. Further, in data set [4] (setting [8]), the MIC was more than 52 µM.

Consider `Cn1c(C(=O)NCCCC(=O)O)cc(Br)c1Br`, for which, in the data set on L5178Y [1], the growth, % of control is 108%. In addition, the “growth inhibition (GI)” value in data set [2] is “inactive”. Also, the inhibition result in data set [3] is “inactive”. Moreover, the MIC in data set [4] (setting [8]) was more than 54 µM.

With `CN(C)CCc1ccc(OCCCNC(=O)c2cc(Br)c[nH]2)c(Br)c1` [AGELANESIN A], in the data set on L5178Y [5], the IC50 came to 9.55 µM. For the same compound, in the data set on L5178Y [1], the growth, % of control was -0.5%. Further, the “growth inhibition (GI)” value in data set [2] was “inactive”. Further, the inhibition result in data set [3] was “inactive”. In data set [4] (setting [8]), the MIC was more than 42 µM.

With `NC1=N[C@@]23CCCN2C(=O)c2cc(Br)c(Br)n2[C@H]3N1`, the “growth inhibition (GI)” value in data set [2] is “inactive”. In addition, in data set [3], the inhibition entry was “inactive”.

On to `C=C1CC[C@@H]2C(C)(C)CCC[C@@]2(C)[C@@H]1CC/C(C)=C/Cn1c[n+](C)c2ncnc(N)c21.[Cl-]` [AGELASINE D], for which it took 4.03 µM to reach half-maximal inhibition in the data set on L5178Y [5] (IC50). Besides, in the data set with Amphibalanus improvisus [6], the inhibition result was “Dose-dependent effect”. For the same compound, in the data set on L5178Y [1], the growth, % of control is 1.9%. In addition, the Activity result with Amphibalanus improvisus [7] is “Toxic”. For the same compound, the “growth inhibition (GI)” value in data set [2] is “inactive”. The inhibition entry in data set [3] was “inactive”. Moreover, the minimal inhibitory concentration (MIC) in data set [4] (setting [8]) was less than 0.0877 µM.

For `Cn1c(C(=O)NCCCC2(NCCS(=O)(=O)O)NC(=N)NC2=O)cc(Br)c1Br` (configuration not stated) [MAURITAMIDE B], in the data set on L5178Y [1], the growth, % of control amounted to 92.5%. For the same compound, the “growth inhibition (GI)” value in data set [2] was “inactive”. For the same compound, the inhibition result in data set [3] was “inactive”. Besides, in data set [4] (setting [8]), the MIC was more than 37 µM.

Compound `O=C1NCC(O)n2cc(Br)cc21` (configuration not stated) gave an IC50 with L5178Y [5] of more than 43.2 µM. Besides, the growth, % of control in the data set with L5178Y [1] came out at 78.5%. In addition, in data set [2], the “growth inhibition (GI)” value is “inactive”. For the same compound, in data set [3], the inhibition result was “inactive”. Also, the MIC in data set [4] (setting [8]) is more than 87 µM.
